Experiment [1] concerns the target T1, human TRPV1 (Homo sapiens, UniProt Q8NER1).
T1 construct: expressed in transfected cells; host or cells: HEK293
The experiment can be described thus: FLIPR assay in HEK293 cells expressing human TRPV1. The class given is cell-based. To be noted: Δ^9-THC 240 μM, cannabinol 600 μM, others 120 μM. How it is done:
A selected number of cannabinoids were also tested against HEK293 cells expressing human TRPV1 and canine TRPM8 in the FLIRP assay.

Experiment [2] has as its target T2, rat TRPV2 (Rattus norvegicus, UniProt Q9WUD2, A713V/L151P/T158I).
T2 construct: A cDNA fragment encoding the full-length rat TRPV2 was subcloned into pCI-neo; expressed in transfected cells
T2 sequence (Q9WUD2 1-761 L151P/T158I/A713V): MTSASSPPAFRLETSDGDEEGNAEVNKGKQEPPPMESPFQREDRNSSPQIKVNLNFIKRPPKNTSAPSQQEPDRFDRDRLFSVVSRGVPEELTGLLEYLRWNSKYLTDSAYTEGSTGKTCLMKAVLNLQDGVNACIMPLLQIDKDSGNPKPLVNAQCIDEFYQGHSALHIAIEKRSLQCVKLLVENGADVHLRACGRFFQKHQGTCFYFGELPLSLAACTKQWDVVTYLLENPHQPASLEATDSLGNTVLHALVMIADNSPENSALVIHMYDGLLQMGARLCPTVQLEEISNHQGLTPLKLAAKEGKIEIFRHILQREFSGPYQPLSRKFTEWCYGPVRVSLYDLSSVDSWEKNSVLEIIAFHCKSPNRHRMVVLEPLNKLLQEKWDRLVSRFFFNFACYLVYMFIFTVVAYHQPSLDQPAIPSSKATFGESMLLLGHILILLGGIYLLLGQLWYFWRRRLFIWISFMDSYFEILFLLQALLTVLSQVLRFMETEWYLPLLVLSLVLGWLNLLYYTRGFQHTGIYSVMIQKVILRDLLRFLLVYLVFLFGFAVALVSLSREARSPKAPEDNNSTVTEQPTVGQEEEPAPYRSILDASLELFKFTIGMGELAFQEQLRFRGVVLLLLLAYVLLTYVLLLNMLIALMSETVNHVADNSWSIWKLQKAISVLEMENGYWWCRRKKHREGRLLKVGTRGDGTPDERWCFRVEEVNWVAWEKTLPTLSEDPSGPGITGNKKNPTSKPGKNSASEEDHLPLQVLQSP
In words: FLIPR calcium mobilization assay in rat TRPV2-expressing HEK293 cells. In kind it is cell-based. The procedure:
A cDNA fragment encoding the full-length rat TRPV2 was subcloned into pCI-neo (Promega, Madison, Wis.) mammalian expression vector. The expression construct was then transfected into HEK293 cells with FuGene6 transfection reagent (Roche, Indianapolis, Ind.) according to the vendor's protocol. Stable cell lines were selected by growth in the presence of 400 μg/ml G418. Single G418 resistant clones were isolated and purified.
The rat TRPV2-expressing HEK293 cells were seeded in a 384-well plate at a concentration of 5×10^3 cells/well and incubated overnight at 37° C. The following day, the cells were loaded with buffer and calcium dye 3 (Molecular Devices, Sunnyvale, Calif.) in a final volume of 50 μl and incubated for 30 minutes at 37° C./5% CO2 followed by 30 additional minutes at room temperature. The fluorescence intensity was measured by a fluorescent plate reader (FLIPR) before, during and after the addition of test compounds.
All data was normalized to that observed for 100 μM Δ^9-THC.

Experiment [3] has as its target CB2 receptor. To be noted: cited from earlier work.
The target of experiment [4] is T3, rat and human TRPV2 chimera RHR (Rattus norvegicus, UniProt Q9WUD2, A398L/D418K/D570G/D595E/E431N/E493A/E569T/E577V/E585D/F395L/F429V/I422A/INS586GN/K566E/L151P/L436T/L450V/L461V/L478F/L485V/L503S/M468I/M492L/N571P/P420Q/P587G/P589Q/Q419K/R460H/R490C/R560Q/R563W/R617H/S416T/S424H/S425L/S504A/S564R/S573A/S592G/T428E/T494I/T576S/T580M/V402I/V409A/V543I/V575E/V581E/V621M/V635I/Y400N).
T3 construct: expressed in transfected cells; host or cells: HEK293, transient, pCI-neo
In words: Calcium mobilization in HEK293 cells expressing TRPV2 chimera RHR. The following applies: transient expression in HEK293. In kind it is cell-based. The procedure: The deletion mutant constructs were then transfected into HEK293 cells using Fugene 6 reagent (Roche) as per the manufacturer's instructions. At 24 hours post-transfection, the cells were harvested and replated in fresh DMEM medium supplemented with 10% fetal bovine serum, 100 units/ml penicillin, and 100 μg/ml streptomycin. The cells were distributed onto poly-D-Lysine coated 96-or 384-well plates at a density of approximately 40,000 and 10,000 cells per well, respectively. At approximately 48 hours post-transfection, the medium was removed from the assay plate and replaced with Calcium 3 Dye Buffer (Molecular Devices) using the protocol available from the manufacturer. Calcium mobilization was triggered using Δ^9-THC or 2-APB or elevated temperature buffer and measured using either FLIPR or FLEX STATION instruments.
Based on the predicted topology and primary sequence features of TRPV2, TRPV2 are divided into 3 major domains: 1) the amino-terminal intracellular domain; 2) the transmembrane domain; and 3) the carboxyl-terminal intracellular domain. For a chimera, each domain can be of rat (R) or human (H) origin. Three rat and human TRPV2 chimera were constructed and tested herein. RRH (SEQ ID NO:15) was a chimera comprising rat 1-392 aa, rat 393-646 aa, and human 647-764 aa. RHR (SEQ ID NO:16) was a chimera comprising rat 1-392, human 391-646, and rat 647-761. HRR (SEQ ID NO:17) was a chimera comprising human 1-390, rat 393-646, and rat 647-761.
DNA molecules encoding the three rat and human TRPV2 chimeras were obtained by fusion PCR. First, DNA molecules encoding the desired TRPV2 domains were amplified by PCR using the rat or human TRPV2 cDNA as the template with synthetic primer DNA containing in-frame sequence that overlapped with the other species domain to be linked. After PCR amplification and purification, DNA molecules encoding the desired TRPV2 domains from human and rat were combined and used as templates for fusion PCR with primer DNA matching the 5′ and 3′ end sequences of the coding sequence for the full length TRPV2 chimera. […]
A general note: Calcium assays in cells follow changes in intracellular calcium, usually with a dye or a luminescent sensor.

Experiment [5] has as its system deletion mutants of rat TRPV2. In words: Calcium mobilization in HEK293 cells expressing rat TRPV2 deletion mutants. In kind it is cell-based. To be noted: mutants lacking N-terminal 20, 32/33, 65/66 or C-terminal 11, 23, 32 residues. An excerpt:
DNA molecules encoding the deletion mutants were amplified by PCR using the rat TRPV2 cDNA as the template. For amino-terminal deletions, a series N-terminal forward primers encoding an initiating methionine in frame with sequences matching adjacent regions of the desired start at residues G21 (mutant N20, SEQ ID NO:11), P33 (N32, SEQ ID NO:12), A66 (N65, SEQ ID NO:13) and V84 (N83, SEQ ID NO:14) paired with a C-terminal reverse primer were used for PCR amplification. While for carboxyl-terminal deletions, a forward N-terminal primer paired with a series C-terminal reverse primers ending at residues R706 (C51, SEQ ID NO:7), P729 (C32, SEQ ID NO:8), P738 (C23, SEQ ID NO:9) and E750 (C11, SEQ ID NO:10) with an in-frame stop codon at the terminal end of the open reading frame were used for amplification. After PCR amplification and purification, the DNA molecules encoding the deletion mutants were subcloned into the pCI-neo mammalian expression vector and the constructs were confirmed by DNA sequencing. […]
The deletion mutant constructs were then transfected into HEK293 cells using Fugene 6 reagent (Roche) as per the manufacturer's instructions. […] Calcium mobilization was triggered using Δ^9-THC or 2-APB or elevated temperature buffer and measured using either FLIPR or FLEX STATION instruments.

[6] abbreviates: HEK293; read-out: % Response (activation of rat TRPV2).
Setting [7] is: FLIPR, rat TRPV2-expressing HEK293 cells; read-out: EC50 (activation of rat TRPV2).
The mark [8] stands for this setting: 100 μM compound (anandamide 120 μM); normalized to 100 μM Δ^9-THC.

Where two headings read alike, the source gives them in different places.

For orientation: Ki means the equilibrium dissociation constant of an inhibitor or competing ligand from its target. What is called EC50 is the concentration at which the effect is half-maximal.

Regarding `CCCCC/C=C\C/C=C\C/C=C\C/C=C\CCCC(=O)Nc1ccc(O)cc1` [AM404], the “activation of TRPV1” value in experiment [1] was “activated”. Besides, in experiment [2] (setting [6]), the Emax at 100 µM was 6%.
For the compound `C=C(C)[C@@H]1CCC(C)=C[C@H]1c1c(O)cc(O)cc1CCCCC` [CAY10429], the Emax at 100 µM in experiment [2] (setting [6]) turned out to be 0%.
Take `CCCCC/C=C\C/C=C\C/C=C\C/C=C\CCCC(=O)OC(CO)CO` [2-AG, 2-arachidonylglycerol]: in experiment [3], the Ki is 1.4 µM. Also, the “activation of TRPV1” value in experiment [1] is recorded as “activated”. The Emax at 100 µM in experiment [2] (setting [6]) was 30%.
As for `CCCCCCC(C)(C)c1cc(O)c2c(c1)OC(C)(C)[C@H]1CC=C(CO)C[C@H]21` [HU-211], the Emax at 100 µM in experiment [2] (setting [6]) amounted to 31%.
As for `C=C(C)[C@@H]1CCC(C)=C[C@H]1c1c(O)cc(C)cc1O` [O-1821], the EC50 in experiment [2] (setting [7]) was ~20 µM. Besides, in experiment [2] (setting [6]), the Emax at 100 µM was determined as 95%.
In the case of `CCCCCc1cc(O)c2c(c1)OC(C)(C)c1ccc(C)cc1-2` [Cannabinol], the “activation of TRPV1” value in experiment [1] is “no significant activation”. For the same compound, the EC50 in experiment [2] (setting [7]) was determined as 77.7 µM. In addition, the Emax at 100 µM in experiment [2] (setting [6]) is 68%.
On to `Cc1cc2cccc3c2n1C(CN1CCOCC1)[C@H](C(=O)c1cccc2ccccc12)O3` (stereo partly drawn) [WIN-55,212-2], for which the Emax at 100 µM in experiment [2] (setting [6]) was -2%.
Turning to `CCCC(C)(C)c1ccc2c(c1)OC(C)(C)[C@@H]1CC=C(C)C[C@@H]21` [JWH-133], in experiment [2] (setting [6]), the Emax at 100 µM worked out at 5%.
With Nabilone, in experiment [2] (setting [8]), the “% Response (activation of rat TRPV2)” value was 59%.
On to `CCCn1c(C)c(C(=O)c2cccc3ccccc23)c2ccccc21` [JWH015], for which the Emax at 100 µM in experiment [2] (setting [6]) is 14%.
`C=C(C)[C@@H]1CCC(C)=CC1c1c(OC)cc(C)cc1OC` (stereo partly drawn) [O-1918]: in experiment [2] (setting [6]), the Emax at 100 µM stood at 6%.
Take `CCCCC/C=C\C/C=C\C/C=C\C/C=C\CCCC(=O)NCCO` [Anandamide, N-arachidonoylethanolamine]: the Ki in experiment [3] is 1.93 µM. In addition, the “activation of TRPV1” value in experiment [1] is recorded as “activated”. Besides, the “activation effect on TRPV2” value in experiment [2] is recorded as “no or minimal activation effect”. Also, in experiment [2] (setting [6]), the Emax at 100 µM amounted to 0%.
`CCCCCCC(C)(C)c1cc(OC)c(C2C=C(CO)[C@H]3CC2C3(C)C)c(OC)c1` (stereo partly drawn) [HU-308]: the Emax at 100 µM in experiment [2] (HEK293, read-out: % Response (activation of rat TRPV2)) was 10%.
Turning to `Cc1c(C(=O)c2cccc3ccccc23)c2cccc3c2n1C(CN1CCOCC1)CO3` (stereo not drawn) [WIN 55,212-3], the Emax at 100 µM in experiment [2] (setting [6]) amounted to 7%.
In the case of Cannabidiol, in experiment [2] (setting [8]), the “% Response (activation of rat TRPV2)” value was determined as 163%. In experiment [2] (setting [7]), the EC50 was 3.7 µM.
2-aminoethoxydiphenyl borate [2-APB]: the “response of chimera RHR to the compound” value in experiment [4] is “active”. In addition, the “% Response (activation of rat TRPV2)” value in experiment [2] (setting [8]) is 102%. Moreover, the EC50 in experiment [2] (setting [7]) was found to be 8 µM. In addition, the “response of rat TRPV2 deletion mutants to the compound” value in experiment [5] is on record as “still active”.
As to `C=C(C)[C@@H]1CCC(C)=C[C@H]1C1=C(O)C(=O)C(CCCCC)=CC1=O` [HU-331], the EC50 in experiment [2] (setting [7]) was ~14 µM. In addition, in experiment [2] (setting [6]), the Emax at 100 µM worked out at 47%.
In the case of `CCCCCCC(C)(C)c1ccc(C2CC(O)CCC2CCCO)c(O)c1` (stereo not drawn) [CP55,940], the Emax at 100 µM in experiment [2] (setting [6]) came to 43%.
With `CCCCCCCCCCCCCCCC(=O)NCCO` [PEA, palmitoylethanolamide], the Emax at 100 µM in experiment [2] (setting [6]) was found to be 5%.
